For ten molecules, Activity and Ki results are on record in ChEMBL document CHEMBL1126486, “Stable isosteres of neurotensin c-terminal pentapeptides derived by modification of the amide function” (Bioorg Med Chem Lett, 1993).

As a reminder, the Ki is a measure of affinity in units of concentration, obtained from inhibition or displacement.

Test [1] has as its system Mus musculus. Nature of the test: Antinociceptive activity was determined using the phenylquinone writhing assay by intravenous administration. Format: functional. In general terms: An intraperitoneal irritant provokes the stretching counted in writhing tests.
Test [2] has as its target Neurotensin receptor type 1 (Rattus norvegicus, UniProt P20789). The experiment in a line: Neurotensin receptor binding affinity by displacement of [3H]- neurotensin. On the technique in general: Displacement assays read how much labelled ligand stays bound in the presence of the test substance.
For test [3], the system named is Mus musculus. The experiment in a line: Antinociceptive activity was determined using the phenylquinone writhing assay by […] administration. Format: functional.

Where a SMILES comes first, the peptide text is derived from it. [ ]: non-standard residue; d: D form. The star is where a group is joined. Adamantane1carbonyl = O=C(C12CC3CC(CC(C3)C1)C2)*; Orn = NCCC[C@H](N)C(=O)O; Boc = CC(C)(C)OC(=O)* Some results are limits rather than exact numbers.

Neurotensin receptor type 1, sequence (P20789 whole entry): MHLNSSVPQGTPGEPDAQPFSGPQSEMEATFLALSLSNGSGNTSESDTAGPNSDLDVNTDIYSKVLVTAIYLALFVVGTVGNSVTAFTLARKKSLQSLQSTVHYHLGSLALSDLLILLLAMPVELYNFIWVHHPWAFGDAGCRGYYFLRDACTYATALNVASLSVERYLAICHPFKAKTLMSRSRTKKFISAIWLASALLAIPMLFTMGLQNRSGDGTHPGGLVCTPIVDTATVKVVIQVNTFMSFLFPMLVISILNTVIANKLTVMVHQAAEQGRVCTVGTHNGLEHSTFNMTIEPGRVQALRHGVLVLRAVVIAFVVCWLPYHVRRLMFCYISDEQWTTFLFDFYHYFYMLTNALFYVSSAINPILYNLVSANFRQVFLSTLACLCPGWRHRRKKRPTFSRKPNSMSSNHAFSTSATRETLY

As for `CC[C@H](C)[C@H](NC(=O)[C@H](Cc1ccc(O)cc1)N/C=C/C(=O)[C@@H]1CCCN1C(=O)[C@H](CCCCN)NC(=O)OC(C)(C)C)C(=O)N[C@@H](CC(C)C)C(=O)O`, the values for the Activity in the test on Mus musculus [1] and in the test with Mus musculus [3] were above 27 mg/kg and 22 ug mouse-1, respectively. In test [2], the Ki was 1.63 µM.
The molecule `CC[C@H](C)[C@H](NNCC(=O)[C@H](Cc1ccc(O)cc1)NC(=O)[C@@H]1CCCN1C(=O)[C@H](CCCN)NC(=O)OC(C)(C)C)C(=O)N[C@@H](CC(C)C)C(=O)O` registered a Ki in test [2] above 10 µM. The same molecule displayed an Activity with Mus musculus [3] of 29 ug mouse-1.
Consider `CC[C@H](C)[C@H](NC(=O)[C@H](Cc1ccc(O)cc1)NNCC(=O)[C@@H]1CCCN1C(=O)[C@H](CCCCN)NC(=O)C12C[C@H]3C[C@@H](C1)C[C@@H](C2)C3)C(=O)N[C@@H](CC(C)C)C(=O)O`, for which the results for the Activity in the test with Mus musculus [1] and in the test with Mus musculus [3] were 20 mg/kg and 4.5 ug mouse-1, respectively. The affinity in test [2], expressed as Ki, was 1.61 µM.
In test [2], `CC[C@H](C)[C@H](NNCC(=O)[C@H](Cc1ccc(O)cc1)NC(=O)[C@@H]1CCCN1C(=O)[C@H](CCCCN)NC(=O)C12C[C@H]3C[C@@H](C1)C[C@@H](C2)C3)C(=O)N[C@@H](CC(C)C)C(=O)O` registered a Ki of 5.96 µM. In the test with Mus musculus [3], this molecule displayed an Activity above 50 ug mouse-1.
`CC[C@H](C)[C@H](NNCC(=O)[C@H](Cc1ccc(O)cc1)NC(=O)[C@@H]1CCCN1NCC(=O)[C@H](CCCCN)NC(=O)C12C[C@H]3C[C@@H](C1)C[C@@H](C2)C3)C(=O)N[C@@H](CC(C)C)C(=O)O` returned a Ki in test [2] of 3.86 µM. This molecule also yielded an Activity in the test on Mus musculus [3] above 50 ug mouse-1.
Turning to `CC[C@H](C)[C@H](NC(=O)[C@H](Cc1ccc(O)cc1)NNCC(=O)[C@@H]1CCCN1C(=O)[C@H](CCCN)NC(=O)OC(C)(C)C)C(=O)N[C@@H](CC(C)C)C(=O)O`, the Activity was 37 mg/kg with Mus musculus [1] and 0.89 ug mouse-1 in the test on Mus musculus [3]. The same molecule yielded a Ki in test [2] of 2.98 µM.
Consider `CC[C@H](C)[C@H](NC(=O)[C@H](Cc1ccc(O)cc1)NC(=O)[C@@H]1CCCN1C(=O)[C@H](CCCCN)NC(=O)C12CC3CC(CC(C3)C1)C2)C(=O)N[C@@H](CC(C)C)C(=O)O` (Adamantane1carbonyl-KPYIL-OH), for which the Activity with Mus musculus [1] was 2.2 mg/kg; in the test with Mus musculus [3], 0.15 ug mouse-1. This molecule returned a Ki in test [2] of 0.117 µM.
Regarding `CC[C@H](C)[C@H](NC(=O)[C@H](Cc1ccc(O)cc1)NC(=O)[C@@H]1CCCN1C(=O)[C@H](CCCCN)NC(=O)OC(C)(C)C)C(=O)N[C@@H](CC(C)C)C(=O)O` (Boc-KPYIL-OH), the Activity with Mus musculus [1] stood at 3 mg/kg; with Mus musculus [3] it was 0.018 ug mouse-1. Moreover, in test [2], the Ki was found to be 0.063 µM.
On to `CC[C@H](C)[C@H](NC(=O)[C@H](Cc1ccc(O)cc1)NC(=O)[C@@H]1CCCN1C(=O)[C@H](CCCN)NC(=O)OC(C)(C)C)C(=O)N[C@@H](CC(C)C)C(=O)O` (Boc-[Orn]PYIL-OH), for which the Activity in the test with Mus musculus [1] stood at 0.74 mg/kg; in the test on Mus musculus [3] it was 0.00097 ug mouse-1. The affinity in test [2] corresponds to a Ki of 0.082 µM.
Regarding H-KPYIL-OH, the Activity was above 81 mg/kg with Mus musculus [1] and 5.9 ug mouse-1 in the test with Mus musculus [3]. The same molecule yielded a Ki in test [2] of 0.688 µM.
